Test results taken from the NIST ThermoML archive (doi:10.1021/je200721d).

Assay: xn = mol fraction of the nth substance listed
Conditions: Liquid, Vibrating tube method

CCCCCCCCCC [decane] + CCCCCC
Conditions | mass density [kg/m3]
313.18 K, 22000 kPa, x2 = 0.7524 | 687.87
313.18 K, 23000 kPa, x2 = 0.0456 | 730.42
313.18 K, 23000 kPa, x2 = 0.7524 | 688.65
313.18 K, 24000 kPa, x2 = 0.0456 | 731.08
313.18 K, 24000 kPa, x2 = 0.7524 | 689.4
313.18 K, 25000 kPa, x2 = 0.0456 | 731.73
313.18 K, 25000 kPa, x2 = 0.7524 | 690.14
313.21 K, 1000 kPa, x2 = 0.4968 | 688.23
313.21 K, 2000 kPa, x2 = 0.4968 | 689.24
313.21 K, 3000 kPa, x2 = 0.4968 | 690.26
313.21 K, 4000 kPa, x2 = 0.4968 | 691.19
313.21 K, 5000 kPa, x2 = 0.4968 | 692.15
313.21 K, 6000 kPa, x2 = 0.4968 | 693.12
313.21 K, 7000 kPa, x2 = 0.4968 | 694.03
313.21 K, 8000 kPa, x2 = 0.4968 | 694.95
313.21 K, 9000 kPa, x2 = 0.4968 | 695.84
313.21 K, 10000 kPa, x2 = 0.4968 | 696.74
313.21 K, 10990 kPa, x2 = 0.4968 | 697.6
313.21 K, 12000 kPa, x2 = 0.4968 | 698.47
313.21 K, 13000 kPa, x2 = 0.4968 | 699.32
313.21 K, 14000 kPa, x2 = 0.4968 | 700.16
313.21 K, 15000 kPa, x2 = 0.4968 | 700.95
313.21 K, 16000 kPa, x2 = 0.4968 | 701.76
313.21 K, 17000 kPa, x2 = 0.4968 | 702.55
313.21 K, 18000 kPa, x2 = 0.4968 | 703.34
313.21 K, 19000 kPa, x2 = 0.4968 | 704.08
313.21 K, 20000 kPa, x2 = 0.4968 | 704.83
313.21 K, 21000 kPa, x2 = 0.4968 | 705.58
313.21 K, 22000 kPa, x2 = 0.4968 | 706.34
313.21 K, 23000 kPa, x2 = 0.4968 | 707.05
313.21 K, 24000 kPa, x2 = 0.4968 | 707.76
313.21 K, 25000 kPa, x2 = 0.4968 | 708.45
322.99 K, 1000 kPa, x2 = 0.8991 | 645.29
322.99 K, 2000 kPa, x2 = 0.8991 | 646.4
322.99 K, 3000 kPa, x2 = 0.8991 | 647.52
322.99 K, 4000 kPa, x2 = 0.8991 | 648.64
322.99 K, 5000 kPa, x2 = 0.8991 | 649.64
322.99 K, 6000 kPa, x2 = 0.8991 | 650.89
322.99 K, 7000 kPa, x2 = 0.8991 | 652.02
322.99 K, 8000 kPa, x2 = 0.8991 | 653.14
322.99 K, 9000 kPa, x2 = 0.8991 | 654.27
322.99 K, 10000 kPa, x2 = 0.8991 | 655.38
322.99 K, 11000 kPa, x2 = 0.8991 | 656.46
322.99 K, 12000 kPa, x2 = 0.8991 | 657.57
322.99 K, 13000 kPa, x2 = 0.8991 | 658.64
322.99 K, 14000 kPa, x2 = 0.8991 | 659.7
322.99 K, 15000 kPa, x2 = 0.8991 | 660.74
322.99 K, 16000 kPa, x2 = 0.8991 | 661.75
322.99 K, 17000 kPa, x2 = 0.8991 | 662.76
322.99 K, 18000 kPa, x2 = 0.8991 | 663.71
322.99 K, 19000 kPa, x2 = 0.8991 | 664.67
322.99 K, 20000 kPa, x2 = 0.8991 | 665.59
322.99 K, 21000 kPa, x2 = 0.8991 | 666.49
322.99 K, 22000 kPa, x2 = 0.8991 | 667.35
322.99 K, 23000 kPa, x2 = 0.8991 | 668.19
322.99 K, 24000 kPa, x2 = 0.8991 | 669.02
322.99 K, 25000 kPa, x2 = 0.8991 | 669.89
323.14 K, 1000 kPa, x2 = 0.0456 | 705.56
323.14 K, 1000 kPa, x2 = 0.2185 | 697.1
323.14 K, 1000 kPa, x2 = 0.4968 | 679.98
323.14 K, 2000 kPa, x2 = 0.0456 | 706.52
323.14 K, 2000 kPa, x2 = 0.2185 | 698.02
323.14 K, 2000 kPa, x2 = 0.4968 | 681.03
323.14 K, 3000 kPa, x2 = 0.0456 | 707.47
323.14 K, 3000 kPa, x2 = 0.2185 | 698.97
323.14 K, 3000 kPa, x2 = 0.4968 | 682.14
323.14 K, 4000 kPa, x2 = 0.0456 | 708.4
323.14 K, 4000 kPa, x2 = 0.2185 | 699.88
323.14 K, 4000 kPa, x2 = 0.4968 | 683.21
323.14 K, 5000 kPa, x2 = 0.0456 | 709.32
323.14 K, 5000 kPa, x2 = 0.2185 | 700.82
323.14 K, 5000 kPa, x2 = 0.4968 | 684.24
323.14 K, 6000 kPa, x2 = 0.0456 | 710.22
323.14 K, 6000 kPa, x2 = 0.2185 | 701.75
323.14 K, 6000 kPa, x2 = 0.4968 | 685.27
323.14 K, 7000 kPa, x2 = 0.0456 | 711.11
323.14 K, 7000 kPa, x2 = 0.2185 | 702.67
323.14 K, 7000 kPa, x2 = 0.4968 | 686.28
323.14 K, 8000 kPa, x2 = 0.0456 | 711.99
323.14 K, 8000 kPa, x2 = 0.2185 | 703.58
323.14 K, 8000 kPa, x2 = 0.4968 | 687.29
323.14 K, 9000 kPa, x2 = 0.0456 | 712.86
323.14 K, 9000 kPa, x2 = 0.2185 | 704.45
323.14 K, 9000 kPa, x2 = 0.4968 | 688.27
323.14 K, 10000 kPa, x2 = 0.0456 | 713.72
323.14 K, 10000 kPa, x2 = 0.2185 | 705.32
323.14 K, 10000 kPa, x2 = 0.4968 | 689.22
323.14 K, 10990 kPa, x2 = 0.0456 | 714.56
323.14 K, 10990 kPa, x2 = 0.2185 | 706.19
323.14 K, 10990 kPa, x2 = 0.4968 | 690.14
323.14 K, 12000 kPa, x2 = 0.0456 | 715.39
323.14 K, 12000 kPa, x2 = 0.2185 | 707.05
323.14 K, 12000 kPa, x2 = 0.4968 | 691.07
323.14 K, 13000 kPa, x2 = 0.0456 | 716.21
